This assay deals with T1, STK22D (TSSK1) (Homo sapiens, UniProt Q9BXA7).
T1 construct: purchased Thermo Fisher Scientific (Life Technologies) SelectScreen
Nature of the assay: SelectScreen Z'LYTE. The assay is classed as biochemical. The procedure, abridged: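 SelectScreen broad panel; activity (Z'LYTE, Adapta) plus binding formats. ATP: Km app for CSF1R Z'LYTE; 10 for CAMK1 Adapta. Readout = % per kinase.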

Molecules are shown by their SMILES.

T1 sequence (Q9BXA7 whole entry): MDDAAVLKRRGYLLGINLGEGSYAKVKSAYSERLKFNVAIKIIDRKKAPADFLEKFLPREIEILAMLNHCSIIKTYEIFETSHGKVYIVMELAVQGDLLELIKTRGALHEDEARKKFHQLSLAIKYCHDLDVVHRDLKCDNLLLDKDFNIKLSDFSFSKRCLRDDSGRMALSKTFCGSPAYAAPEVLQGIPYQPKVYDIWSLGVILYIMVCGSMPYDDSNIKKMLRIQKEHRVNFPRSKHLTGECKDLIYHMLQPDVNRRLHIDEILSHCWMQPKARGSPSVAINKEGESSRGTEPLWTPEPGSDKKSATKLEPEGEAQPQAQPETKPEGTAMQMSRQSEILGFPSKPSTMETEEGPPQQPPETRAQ

Broadly, the inhibition is the change of the read-out against control, counted positive when it falls. The low end stands for little suppression, the high end for strong suppression. Compound `CN(C(=O)CN1CCOCC1)c1ccc2sc3c(-c4cccc5c(=O)cc(N6CC7CCC(C6)O7)oc45)cccc3c2c1` [NU5455] yielded an inhibition at 1 µM of 4.2%.

Values taken from article PMC6934184, “Selective DNA-PKcs inhibition extends the therapeutic index of localized radiotherapy and chemotherapy” (The Journal of Clinical Investigation, 2019).
